From ChEMBL document CHEMBL1201862, “PubChem BioAssay data set” (2004)
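Following 48 hours of exposure in 96-well plates, responses at five concentrations were used to interpolate endpoints linearly. GI50 is the concentration that inhibits growth by half.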 Active and inactive are the calls of the source. Rule as the data show it: active = GI50 up to about 1.1 µM and inactive = higher.

Tests used:
Experiment in all cases: NCI anticancer screen, dose series, 48 h
786-0 = test system: 786-0
A549 = test system: A549
CCRF-CEM = test system: CCRF-CEM
COLO 205 = test system: COLO 205
EKVX = test system: EKVX
HOP-62 = test system: HOP-62
KM12 = test system: KM12
MDA-MB-435 = test system: MDA-MB-435
MDA-N = test system: MDA-N
MOLT-4 = test system: MOLT-4
NCI-H460 = test system: NCI-H460
OVCAR-5 = test system: OVCAR-5
SF-295 = test system: SF-295
UO-31 = test system: UO-31
LOX IMVI = test system: LOX IMVI
NCI-H226 = test system: NCI-H226
OVCAR-3 = test system: OVCAR-3
SK-MEL-2 = test system: SK-MEL-2
DU-145 = test system: DU-145
NCI-H23 = test system: NCI-H23

Measured: GI50

O=C(C1C(c2ccccc2)N1C(c1ccccc1)c1ccccc1)C1C(c2ccccc2)N1C(c1ccccc1)c1ccccc1 (stereo not drawn)
inactive: 786-0 21.3 µM | A549 39 µM | CCRF-CEM 3.61 µM | COLO 205 > 10 µM | EKVX 48.2 µM | HOP-62 > 100 µM | KM12 26.9 µM | MDA-MB-435 36.4 µM | MDA-N 28.9 µM | MOLT-4 6.9 µM | NCI-H460 15.5 µM | OVCAR-5 32.1 µM | SF-295 75.7 µM | UO-31 21 µM

N#Cc1c(-c2ccc([N+](=O)[O-])cc2)c(C#N)c(=O)n(NS(=O)(=O)c2ccccc2)c1O
inactive: 786-0 > 100 µM | A549 > 100 µM | CCRF-CEM > 100 µM | COLO 205 > 100 µM | EKVX > 100 µM | HOP-62 > 100 µM | LOX IMVI > 100 µM | MDA-MB-435 > 100 µM | MDA-N > 100 µM | MOLT-4 > 100 µM | NCI-H226 > 100 µM | NCI-H460 > 100 µM | OVCAR-3 > 100 µM | OVCAR-5 > 100 µM | SF-295 > 100 µM | SK-MEL-2 > 100 µM

CCOP(=O)(OCC)C(Nc1ccc(C(=O)O)cc1)c1ccc(C(Nc2ccc(C(=O)O)cc2)P(=O)(OCC)OCC)cc1 (stereo not drawn)
inactive: 786-0 > 100 µM | A549 > 100 µM | CCRF-CEM > 100 µM | COLO 205 > 100 µM | DU-145 > 100 µM | EKVX > 100 µM | HOP-62 > 100 µM | KM12 > 100 µM | LOX IMVI > 100 µM | MDA-MB-435 > 100 µM | MOLT-4 > 100 µM | NCI-H226 > 100 µM | NCI-H23 > 100 µM | NCI-H460 > 100 µM | OVCAR-3 > 100 µM | OVCAR-5 > 100 µM | SF-295 > 100 µM | SK-MEL-2 > 100 µM | UO-31 > 100 µM

COC(=O)[C@H](Cc1ccccc1)NP(=O)(O)OCC1C=CC(n2cc(C)c(=O)[nH]c2=O)O1 (stereo partly drawn)
inactive: 786-0 > 100 µM | A549 > 100 µM | CCRF-CEM > 100 µM | COLO 205 > 100 µM | DU-145 > 100 µM | EKVX > 100 µM | HOP-62 > 100 µM | KM12 > 100 µM | LOX IMVI > 100 µM | MDA-MB-435 > 100 µM | MOLT-4 > 100 µM | NCI-H226 > 100 µM | NCI-H23 > 100 µM | NCI-H460 > 100 µM | OVCAR-3 > 100 µM | OVCAR-5 > 100 µM | SF-295 > 100 µM | SK-MEL-2 > 100 µM | UO-31 > 100 µM
